Test results published in patent US20090246212A1, “DEVELOPMENT OF METHOD FOR SCREENING FOR DRUG CAPABLE OF IMPROVING PRODUCTION OF REGULATORY T CELLS AND METHOD FOR PRODUCING REGULATORY T CELLS USING IMMUNOSUPPRESSIVE MACROLIDE ANTIBIOTIC” (KYOTO UNIVERSITY, priority 2005, published 2009).

How the values were obtained:
[1] = test system: CD45RA^+CD25^−CD4^+ T cell line; test: Suppression assay ([^3H] thymidine uptake) of the rapamycin-cultured CD45RA^+CD25^−CD4^+ T cell line; assay type: cell-based, human; details: then 2 days without rapamycin
Description: (§1) CD45RA^+CD25^+CD4^+ T cells or CD45RA^+CD25^−CD4^+ T cells (5×10̂4 cells/well) separated as described above were stimulated with anti-human CD3 and CD28 conjugate beads in a ratio of 4 beads per cell in a 96-well round-bottomed culture plate containing 200 μl per well of a proliferation medium (AlyS505N (produced by Cell Science & Technology Institute) supplemented with 2% human AB serum) in the presence of human IL-2 (1000 U/ml, produced by Cell Science & Technology Institute). Rapamycin (20 nM, produced by Sigma) was added as appropriate. Every 3 to 4 days, half of the medium was replaced with a fresh proliferation medium containing IL-2. If necessary, the cells were separated and repeatedly re-stimulated with anti-CD3/CD28 antibody conjugated beads every 10 to 14 days. […]
(§2) The indicated number of CD45RA^+CD25^+CD4^+ T cells just isolated from human peripheral blood, expanded CD45RA^+CD25^+CD4^+ T cell lines, or expanded CD45RA^+CD25^−CD4^+ T cell line, alone or along with self responder CD4^+ T cells (5×10̂4 cells/well), were stimulated with radiated (40 Gy) allogenic PBMC (1×10̂5 cells/well) in a round-bottomed 96-well microplate containing a proliferation medium. […] Subsequently, the cells were recovered, and [^3H] thymidine uptake was measured using 1450 Microbeta TriLux (Wallac).

[2] = test system: experimental allergic encephalomyelitis model; details: model of multiple sclerosis; cited from earlier work
[3] = test system: CD45RA^+CD25^+CD4^+ T cells; test: FACS phenotype analysis of the T cell line from CD45RA^+CD25^+CD4^+ T cells cultured with rapamycin; assay type: cell-based, human
Description: (§3) PBMC derived from the subjects, or expanded T cell line were incubated with various antibodies for 30 min at 4° C. in the dark, washed, and analyzed using a BD FACSAria cell sorter and a FACSDiVA software (Becton Dickinson). The antibodies used were perCP-conjugated anti-CD4 mAb, biotin-conjugated anti-CD25 mAb, FITC-conjugated anti-CD45RA mAb, PE-conjugated anti-CD45RB mAb, anti-CD45RO mAb, anti-CD62L mAb, anti-CD38 mAb, anti-GITR mAb, and anti-TNFRII mAb. For intracellular staining with CTLA-4, the cells were subjected to cell surface staining, fixation, and permeabilization with Cytofix/Cytoperm solution (Becton Dickinson), and then intracellularly stained with PE-conjugated anti-CTLA-4.
(§4) CD45RA^+CD25^+CD4^+ T cells or CD45RA^+CD25^−CD4^+ T cells in human peripheral blood separated in the same manner as Example 1 (5×10̂4 cells/well) were stimulated with anti-human CD3 and CD28 conjugate beads in a ratio of 4 beads per cell in a 96-well round-bottomed culture plate containing 200 μl per well of a proliferation medium (AlyS505N (produced by Cell Science & Technology Institute) supplemented with 2% human AB serum) in the presence of human IL-2 (1000 U/ml, produced by Cell Science & Technology Institute). Rapamycin (20 nM, produced by Sigma) was added to the medium 0 or 40 days after the start of cultivation. Every 3 to 4 days, half of the medium was replaced with a fresh proliferation medium containing IL-2. If necessary, the cells were separated and repeatedly re-stimulated with anti-CD3/CD28 antibody conjugate beads every 10 to 14 days. Fifty days after the start of cultivation, the cells were collected and used for FACS analysis.
(§5) Expanded T cell lines were incubated with various antibodies for 30 minutes at 4° C. in the dark, washed, and analyzed using BD FACSAria cell sorter and FACSDiVA software (Becton Dickinson). The antibodies and staining conditions used were the same as Example 1.

[4] = test system: IgE-like antibody; details: in vivo; cited from earlier work
[5] = test system: CD45RA^+CD25^+CD4^+ T cell line; test: Suppression assay ([^3H] thymidine uptake) of the rapamycin-cultured CD45RA^+CD25^+CD4^+ T cell line; assay type: cell-based, human; details: then 2 days without rapamycin
Description: as §1, §2

[6] = test system: CD45RA^+CD25^−CD4^+ T cells; test: FACS phenotype analysis of the T cell line from CD45RA^+CD25^−CD4^+ T cells cultured with rapamycin; assay type: cell-based, human; details: rapamycin 20 nM from day 40, collected day 50
Description: as §3, §4, §5

[7] = test system: Candida albicans; details: both in vitro and in vivo, particularly against Candida albicans; cited from earlier work
[8] = rapamycin 20 nM from day 40, collected day 50

In the case of `CO[C@H]1C[C@@H]2CC[C@@H](C)[C@@](O)(O2)C(=O)C(=O)N2CCCC[C@H]2C(=O)O[C@H]([C@H](C)C[C@@H]2CC[C@@H](O)[C@H](OC)C2)CC(=O)[C@H](C)/C=C(\C)[C@@H](O)[C@@H](OC)C(=O)[C@H](C)C[C@H](C)/C=C/C=C/C=C/1C` [rapamycin], the “T cell line's effect on proliferation of CD4^+ T cells in response to alloantigen-presenting cells” value (“T cell line's effect on proliferation” for short) ([1]; rapamycin added day 19, about 35 days after start) is given as “strongly suppressed”, the “T cell line's effect on proliferation” value ([1]; rapamycin from day 0, about 35 days culture) is given as “strongly suppressed” and the “efficacy in experimental allergic encephalomyelitis model” value [2] is given as “effective”. For the same compound, the “CD45RO phenotype of the T cell line” value ([3]; rapamycin 20 nM from day 0, collected day 50) was “negative”, the “CD25 expression relative to CD45RA^−CD25^high+CD4^+ T cells in peripheral blood” value [3, 8] was “about 0.8 times” and the “CD45RA expression relative to CD45RA^+CD25^+CD4^+ T cells in peripheral blood” value [3, 8] was “about ⅙”. The “CD45RB expression relative to CD45RA^−CD25^high+CD4^+ T cells in peripheral blood” value [3, 8] was “about 4 times”, the “CD45RO expression relative to CD45RA^−CD25^high+CD4^+ T cells in peripheral blood” value [3, 8] was “about 1/50” and the “CD62L expression relative to CD45RA^−CD25^high+CD4^+ T cells in peripheral blood” value [3, 8] was “about ⅙”. For the same compound, the “GITR / CTLA4 phenotype of the T cell line” value [3, 8] was “GITR^+CTLA4^+”, the “formation of IgE-like antibody” value [4] was “effectively inhibited” and the “T cell line's effect on proliferation” value ([5]; rapamycin added day 7 or day 39, collected 50 days after start) was “strongly suppressed”. The “T cell line's effect on proliferation” value ([5]; rapamycin from day 0, 50 days culture) was “strongly suppressed”, the “CD25 expression relative to CD45RA^−CD25^high+CD4^+ T cells in peripheral blood” value [6] was “about ⅕” and the “CD45RA expression intensity relative to CD45RA^+CD25^−CD4^+ T cells at the start of cultivation” value [6] was “about 1 time”. The “CD45RO phenotype of the T cell line” value [6] was “negative”, the “CD62L expression relative to CD45RA^−CD25^high+CD4^+ T cells in peripheral blood” value [6] was “about ⅓” and the “GITR / CTLA4 / CD45RB phenotype of the T cell line” value [6] was “GITR^+CTLA4^+CD45RB^high+”. The antifungal activity [7] was “possess antifungal activity”.
